Measured values from publication PMC7286788 (ACS infectious diseases, 2019).

Columns and labels:
M. smegmatis (ATCC607) = assay: MIC determination, resazurin, M. smegmatis; format: cell-based, Mycobacterium smegmatis; settings: 7H9 with 0.5% tween 80, 3 days at 37 °C
MsmegMurG = MsmegMurG (Mycolicibacterium smegmatis, UniProt A0R016); assay: biochemical; parameters: species or system Mycobacterium smegmatis; settings: read-out: IC50 MsmegMurG; HPLC-based method; average of two-three experiments
Chain of MsmegMurG (A0R016 whole entry): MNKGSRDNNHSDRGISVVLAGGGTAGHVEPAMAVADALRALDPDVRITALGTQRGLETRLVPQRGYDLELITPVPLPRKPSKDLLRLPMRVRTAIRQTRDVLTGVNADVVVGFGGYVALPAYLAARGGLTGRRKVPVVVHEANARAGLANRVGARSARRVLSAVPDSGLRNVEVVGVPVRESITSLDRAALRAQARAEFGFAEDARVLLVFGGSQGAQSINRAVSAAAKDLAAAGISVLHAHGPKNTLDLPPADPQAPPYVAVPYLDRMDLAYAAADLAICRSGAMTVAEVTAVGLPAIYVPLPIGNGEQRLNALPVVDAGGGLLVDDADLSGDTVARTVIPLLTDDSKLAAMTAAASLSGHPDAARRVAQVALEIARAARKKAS

M. tuberculosis (H37Rv) = assay: MIC determination, M. tuberculosis; format: cell-based, Mycobacterium tuberculosis; settings: 7H9 containing OADC; 14 days
HyMurG [1] = molecular target: T1, HyMurG (Hydrogenivirga sp. 128-5-R1-1, UniProt A8US35); assay: UV-Vis-based MurG assay; format: biochemical; settings: 50–100 μM
T1 sequence (A8US35 1-350): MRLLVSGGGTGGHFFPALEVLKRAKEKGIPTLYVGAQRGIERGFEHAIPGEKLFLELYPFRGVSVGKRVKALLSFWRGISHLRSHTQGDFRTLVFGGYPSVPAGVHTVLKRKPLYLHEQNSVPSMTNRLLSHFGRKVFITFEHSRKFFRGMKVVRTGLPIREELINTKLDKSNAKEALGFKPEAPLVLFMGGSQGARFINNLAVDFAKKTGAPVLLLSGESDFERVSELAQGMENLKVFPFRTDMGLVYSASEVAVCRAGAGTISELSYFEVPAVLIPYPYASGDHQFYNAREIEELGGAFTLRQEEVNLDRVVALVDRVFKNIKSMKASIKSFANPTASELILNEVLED

MsmegMraY = MsmegMraY (Mycolicibacterium smegmatis, UniProt A0R019); assay: biochemical; format: biochemical, Mycobacterium smegmatis
Chain of MsmegMraY (A0R019 whole entry): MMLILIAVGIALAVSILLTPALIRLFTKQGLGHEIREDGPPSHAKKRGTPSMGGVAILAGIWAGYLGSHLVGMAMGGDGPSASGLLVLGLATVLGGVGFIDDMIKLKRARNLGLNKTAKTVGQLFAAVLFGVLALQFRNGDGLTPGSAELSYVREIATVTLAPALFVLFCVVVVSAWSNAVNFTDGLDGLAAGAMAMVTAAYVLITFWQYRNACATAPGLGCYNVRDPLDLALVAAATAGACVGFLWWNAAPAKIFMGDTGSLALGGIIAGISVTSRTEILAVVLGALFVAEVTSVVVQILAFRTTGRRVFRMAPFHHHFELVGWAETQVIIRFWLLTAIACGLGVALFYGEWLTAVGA

Vero cell = assay: Cytotoxicity against Vero cells
HyMurG [2] = molecular target: T1, HyMurG; assay: HPLC-based MurG assay, dose-response, HyMurG; format: biochemical; settings: read-out: IC50 HyMurG; HPLC-based method; average of two-three experiments

tunicamycin
M. smegmatis (ATCC607) MIC (M. smegmatis (ATCC607)): 6.25 to 12.5 µg/mL
IC50 (MsmegMurG): > 100 µM
M. tuberculosis (H37Rv) MIC (M. tuberculosis (H37Rv)): 12.5 µg/mL
Inhibition of MurG function / lipid II formation (HyMurG [1]): did not inhibit
MurX activity after addition of inhibitor (MsmegMraY; 50 μM, P-60, protocol B): terminated completely
IC50 (MsmegMraY; read-out: IC50 MsmegMraY, HPLC-based method, average of two-three experiments): 2.9 µM
Vero cell cytotoxicity IC50 (Vero cell): 1.56 µg/mL
IC50 (HyMurG [2]): > 100 µM
